The results in this text go back to patent publication US9409146B2, “Method for treating amyloid disease” (New York University, priority 2002, dated 2016).

Assay [1] has as its system Tg2576 APP mouse model. The experiment in a line: Radial arm maze after immunization of Tg2576 mice. It counts as in vivo. The method, then:
(§1) Briefly, mice received their first immunization with K6Aβ1-30-NH2(E18E19) at 10.5-13 months of age (peptide: n=23; vehicle: n=24). The animals were bled prior to vaccination, 3 months following the first injection and at the time of sacrifice at 18 to 21 months. The mice were tested in the radial arm maze, subsequently perfused and their brains processed as described (Sigurdsson et al., Am. J. Pathol. 2001; 159:439-4471) (peptide: n=18; vehicle: n=18).
The vaccination was performed in the Tg2576 APP mouse model developed by Karen Hsiao and colleagues (Hsiao et al., Science 1996:274:99-1022). These mice develop Aβ plaques as early as at 11 to 13 months of age. The animals were maintained on a 12-hour light-dark cycle, and had access to food and water ad libitum. The animal care was in accordance with institutional guidelines.
K6Aβ1-30-NH2(E18E19) was supplied as trifluoroacetic acid salt. […]
Animals were kept in test room throughout the experiment, behind a cover to prevent view of the apparatus and room. […] Total number of errors and time to enter all eight arms were recorded. […]
(§2) The data for the amyloid burden within the brain were analyzed by a Student's t-test, one-tailed (GraphPad Prism). The radial arm maze data was analyzed by two-way ANOVA repeated measures. […] Correlation was determined by calculating the Pearson r correlation coefficient.

In assay [2] the test system is Tg2576 APP mouse model. As to the kind of experiment: Antibody levels in plasma by ELISA after immunization. The settings on record: for IgM response compared to IgG response: plasma at 1:500 dilution. It counts as in vivo. How it is done: as §1
K6Aβ1-30-NH2(E18E19) was supplied as trifluoroacetic acid salt. The immunization procedure was performed as previously described by us (Sigurdsson et al., Am. J. Pathol. 2001; 159:439-4471) which is the same protocol as described by Schenk and colleagues (Schenk et al., Nature 1999; 400:173-1773) except that the peptide was not incubated overnight at 37° C. before injection. Briefly, the peptide was dissolved in phosphate-buffered saline (PBS) at a concentration of 2 mg/ml and then mixed 1:1 (v/v) with the adjuvant or PBS. Complete Freund's adjuvant was used for the first injection, incomplete Freund's adjuvant for the next three injections, and PBS from the fifth injection forward. The mice received a subcutaneous injection of 100 μl of the mixture (ie, 100 μg/100 μl) followed by a second injection 2 weeks later, and then monthly thereafter. Vaccination using the K6Aβ1-30-NH2(E18E19) peptide started when the mice were 10.5-13 months of age and the mice were sacrificed at 18-21 months of age.
Antibody levels were determined by 1:500 dilutions of plasma using an enzyme-linked immunosorbent assay (ELISA) as described previously (Jimenez-Huete et al., Alzheimers Reports 1998; 1:41-47) in which Aβ or its derivative is coated onto microtiter wells. The antibodies were detected by a goat anti-mouse IgG linked to a horseradish peroxidase (Amersham Pharmacia Biotech, Piscataway, N.J.) or a goat anti-mouse IgM peroxidase conjugate (Sigma, A8786), and tetramethyl benzidine (Pierce, Rockford, Ill.) was the substrate.
For orientation: ELISA stands for enzyme-linked immunosorbent assay.

The next assay has as its system Aβ plaques. As to the kind of experiment: Histology and image analysis of Aβ plaques in brain (6E10 staining). In kind it is in vivo, mouse. How it is done:
as §1
Mice were anesthetized with sodium pentobarbital (150 mg/kg, intraperitoneally), perfused transaortically with phosphate buffer and the brains processed as previously described (Sigurdsson et al., Neurobiol. Aging 1996; 17:893-901) The right hemisphere was immersion fixed in periodate-lysine-paraformaldehyde (PLP), whereas the left hemisphere was snap-frozen for measurements of Aβ3 levels using established ELISA methods (Mehta et al., Arch. Neurol. 2000; 57:100-105). Serial coronal sections (40 μm) were cut and every fifth section was stained with 6E10 which recognizes Aβ and stains both pre-amyloid and Aβ plaques (Kim et al., Neurosci Res Comm 1990; 7:113-122). […]
Immunohistochemistry of tissue sections was quantified with a Bioquant image analysis system, and unbiased sampling was used (West et al., Trends Neurosci. 1999; 22:51-61). […] Cortical area analyzed was dorsomedially from the cingulate cortex and extended ventrolaterally to the rhinal fissure within the right hemisphere. The area of the grid was 800×800 μm^2 and amyloid load was measured in 20 frames per mouse (each: 640×480 μm^2), chosen randomly. […] The number of plaques were also counted and the plaques were divided into three groups based on their size (small: 0.01-50 μm^2; medium: 50.01-1000 μm^2; large: >1000 μm^2).
as §2

Assay [3] has as its system immobilized Aβ40 and Aβ42 peptides. As to the kind of experiment: Solid-phase binding assay (ELISA) of apoE preparations to immobilized Aβ peptides. The settings on record: delipidated or lipidated (HDL/r-HDL) apoE3 and apoE4, 0-150 nM, 3 h. How it is done:
The binding of apoE to Aβ species was studied by ELISA using immobilized freshly prepared (non-aggregated) or 72-h-aggregated Aβ40 and Aβ42 and apoE3 or apoE4 isoforms with different degrees of lipidation. Polystyrene microtitre plates (Immulon2; Dynex Technology, Chantilly, Va., U.S.A.) were coated for 2 h. at 37° C. with either fresh or aggregated Aβ40 and Aβ42 (40(0 ng in 100 μl of 0.1 M NaHCO3, pH 9.6, per well). Under these conditions, 10 ng of fresh Aβ40, 9.6 ng of fresh Aβ42, 10.2 ng of aggregated Aβ40 and 10.9 ng of aggregated Aβ42 (representing 2.5, 2.4, 2.6 and 2.7% of the peptide offered, respectively) were coated to the microtitre wells, as determined by a modification of the Quantigold assay (Diversified Biotech, Boston, Mass., U.S.A.) for protein quantification. After blocking with Superblock (Pierce), increasing concentrations of apoE (0-150 nM in TBS; 100 μl per well) were added to the Aβ-coated wells and incubated for 3 h. at 37° C. Bound apoE was detected with monoclonal anti-apoE antibody (3D12, 1:1000) followed by alkaline-phosphatase-conjugated goat F(ab′)2 anti-mouse IgG (1:3000; BioSource International, Camarillo, Calif., U.S.A.). The reaction was developed for 30 min. with p-nitrophenyl phosphate in diethanolamine buffer (Bio-Rad, Hercules, Calif., U.S.A.), and quantified at 405 nm on a Microplate Reader (Cambridge Technology, Watertown, Mass., U.S.A.). […]

Chain of immobilized Aβ40 and Aβ42 peptides (P05067 672-711 limits assumed): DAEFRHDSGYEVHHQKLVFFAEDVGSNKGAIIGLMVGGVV

In the case of “K6Aβ1-30(E18E19): first 30 amino acids of amyloid-β with glutamate substituted for valine and phenylalanine in positions 18 and 19”, in the assay on Tg2576 APP mouse model [1] (Tg2576 transgenic mice, two-way ANOVA repeated measures, p<0.05), the “errors in the radial arm maze compared to vehicle-treated controls” value is listed as “significantly fewer errors”. Moreover, in the assay with Tg2576 APP mouse model [1] (immunized mice, p<0.01-0.05), the “radial arm maze performance compared to day 1” value is “showed improvements on days 3, 5, and 7-9”. Besides, the “cross-reactivity of generated IgM antibodies” value with Tg2576 APP mouse model [2] (IgM antibodies after immunization) is recorded as “cross-reacted with Aβ1-40”. Also, the “IgM response compared to IgG response” value with Tg2576 APP mouse model [2] is “substantially more pronounced IgM response compared to IgG response”; in the assay on Tg2576 APP mouse model [2] (listed as K6Aβ1-30-NH2(E18E19)), “high IgM response and low IgG response”. Further, in the assay on Aβ plaques (large: >1000 μm^2), the “effect on large plaques” value is “not significantly (N.S.) affected”. For the same substance, the “reduction of medium sized plaques” value in the assay on Aβ plaques (medium: 50.01-1000 μm^2, p=0.04) was found to be 29%. In the assay with Aβ plaques (small: 0.01-50 μm^2, p=0.02), the “reduction of small plaques” value was 34%.
Consider “apoE: human apoE3 or apoE4 from Sf9, HEK-293 or RAW-264 cells, delipidated or in HDL/r-HDL particles”, for which the “binding of apoE to Aβ” value in assay [3] is “high affinity”.
